# From patent publication US12551475B2, “Methods and compositions for treating RNA viral infections” (Model Medicines, Inc., priority 2020, dated 2026)
# Structures can show the parent of a compound that is named as a salt. Where two headings read alike, the source gives them in different places.
# Columns and labels:
# S. viridans = settings: various strains; cited from earlier work
# S. pneumoniae = settings: various strains; cited from earlier work
# S. epidermidis = settings: various strains; cited from earlier work
# S. aureus = settings: various strains; cited from earlier work
# SARS-CoV-2 [1] = assay: microbe, parasite or virus in culture
# [2] = test system: B-RAFV^600E-expressing A375P melanoma cells; settings: cited from earlier work
# [3] = test system: wild-type B-RAF-expressing human foreskin fibroblasts; settings: cited from earlier work
# cancer cell lines = settings: cited from earlier work
# SARS-CoV-2 [4] = test system: SARS-CoV-2
# [5] = Uninfected host cell cytotoxicity counter screen; type: cell-based, human; settings: human, uninfected HeLa-ACE2 cells; uninfected HeLa-ACE2, 24 h
# Procedure: Compounds were acoustically transferred into 1,536-well clear plates (Greiner Part. No. 789091). HeLa-ACE2 cells were maintained as described for the infection assay and seeded in the assay-ready plates at 400 cells/well in DMEM with 2% FBS and plates were incubated for 24 hours at 37 5% CO2. To assess cell viability, the Image-iT DEAD green reagent (Thermo Fisher) was used according to manufacturer instructions. Cells were fixed with 4% paraformaldehyde, and counterstained with DAPI. Fixed cells were imaged using the ImageXpress Micro Confocal High-Content Imaging System (Molecular Devices) with a 10× objective, and total live cells per well quantified in the acquired images using the Live Dead Application Module (MetaXpress).
# Image analysis was carried out with MetaXpress (version 6.5.4.532). Primary in vitro screen and the host cell cytotoxicity counter screen data were uploaded to Genedata Screener, Version 16.0.3-Standard. Data were normalized to neutral (DMSO) […] inhibitor controls (2.5 μM remdesivir for antiviral effect and 10 μM puromycin for infected host cell toxicity). For the uninfected host cell cytotoxicity counter screen 40 μM puromycin (Sigma) was used as the positive control. For dose response experiments compounds were tested in technical triplicates on different assay plates and dose curves were fitted with the four parameter Hill Equation. Technical replicate data were analyzed using median condensing.
# [6] = molecular target: lysophosphatidic acyl transferase (LPAAT); settings: cytokine-activated LPAAT; read-out: IC50 (generation of phosphatidic acid); cited from earlier work
# Renal 1983 cell line = settings: read-out: IC50 (antitumor activity in vitro); cited from earlier work
# MCF-7 cell line = settings: read-out: IC50 (antitumor activity in vitro); cited from earlier work
# thymocytes = settings: read-out: IC50 (apoptosis); cited from earlier work
# HeLa cells = settings: read-out: IC50 (apoptosis); cited from earlier work
# SARS-CoV-2 [7] = settings: ReFRAME screen, same methods (Bakowski et al, 2020); cited from earlier work
# [8] = in vivo; cited from earlier work
# [9] = molecular target: 3CL Protease (SARS-CoV-2) (Severe acute respiratory syndrome coronavirus 2, UniProt P0DTD1); assay: 3CL Protease (untagged, SARS-CoV-2) activity assay; type: biochemical
# Text: The 3CL Protease Activity Assay described in this example is designed to measure 3CL Protease activity for screening and profiling applications, in a homogeneous assay with no time-consuming washing steps. The assay can be performed in a 96-well format, with purified untagged 3CL Protease, fluorogenic substrate, and 3CL Protease assay buffer for 100 enzyme reactions. 3CL inhibitor GC376 was included as a positive control. See https://bpsbioscience.com/3cl-protease-intagged-sars-cov-2-assay-kit-78042.
# 3CL Protease (SARS-CoV-2), no tag*; 3CL Protease Substrate (10 mM); 3CL Protease Assay Buffer; GC376, MW=507.5; 0.5 M DTT; Black, low binding microtiter plate; Plate sealing film. Fluorescent microplate reader capable of reading exc/em=360 nm/460 nm
# All Samples and Controls were Tested in Duplicate.
# • 1) Added 0.5 M DTT to 3CL Protease Assay Buffer so final DTT concentration was 1 mM. (e.g., added 10 μl of 0.5 M DTT to 5 ml assay buffer) (DTT was added just before use. Enough DTT-containing buffer as required for the assay was prepared. Remaining assay buffer was stored at −20° C.). • 2) Thaw 3CL Protease was thawed on ice. Upon first thaw, tube containing enzyme was briefly spun to recover the full content of the tube. Aliquoted 3CL Protease into single use aliquots. Stored remaining undiluted enzyme in aliquots at −80° C. • 3) Diluted 3CL Protease in Assay buffer (with 1 mM DTT) at 0.5 ng/μl (15 ng per reaction). • 4) Added 30 μl diluted 3CL Protease enzyme solution to wells designated as “Positive Control”, “Inhibitor Control” and “Test Sample”. Added 30 μl Assay buffer (with 1 mM DTT) to the “Blank” wells.
# • 5) Diluted 50 μg GC376 in 200 μl water to obtain a 500 μM solution. Aliquoted and stored remaining solution in aliquots at −80° C. Added 10 μl GC376 (500 μM) to the wells labeled “Inhibitor Control”. • 6) Prepared the inhibitor solution.
# (If the inhibitor compound was dissolved in DMSO, made a 100-fold higher concentration of the compound than the highest concentration tested in DMSO. Then made a 20-fold dilution in 1× assay buffer (at this step the compound concentration is 5-fold higher than the final concentration)).
# If the inhibitor compound is dissolved in water, made a solution of the compound 5-fold higher than the final concentration in 3CL Protease assay buffer (with 1 mM DTT). For example, diluting 50 μg GC376 in 200 μl water (step 5) creates a 500 μM solution. Adding 10 μl to the assay (final volume 50 μl) results in a 100 μM final concentration.
# 7) Added 10 μl inhibitor to each well designated “Test Sample”. Added 10 μl 1× assay buffer or 5% DMSO in water (depending on which inhibitor solution is used) to “Blank” and “Positive Control” wells. • 8) Preincubated enzyme with the inhibitor for 30 min at room temperature with slow shaking. • 9) Diluted 10 mM 3CL Protease substrate 1:50 in assay buffer with DTT, to make a 200 μM solution. Diluted only enough as was required for the assay. • 10) Started reaction by adding 10 μl of the substrate solution to each well (Final concentration of the 3CL Protease substrate in a 50 μl reaction was 40 μM). • 11) Incubated for 4 hours at room temperature with slow shaking. Sealed the plate with the plate sealer. Measured the fluorescence intensity in a microtiter plate-reading fluorimeter capable of excitation at a wavelength 360 nm and detection of emission at a wavelength 460 nm. The fluorescence intensity can also be measured kinetically. “Blank” value was subtracted from all other values. Data Analysis
# 3CL Protease activity assays were performed in duplicates. The fluorescence data were analyzed using the computer software, Graphpad Prism. In the absence of the compound, the fluorescence (Ft) in each data set was defined as 100% activity. In the absence of the 3CL Protease, the fluorescence (Fb) in each data set was defined as 0% activity. […]
# [10] = Severe acute respiratory syndrome coronavirus 2, HeLa-ACE2, 24 h
smiles,measurement,setting,value
"CCC[C@@H]1C[C@@H](C(=O)N[C@@H]([C@H]2O[C@H](SC)[C@H](O)[C@@H](O)[C@H]2O)[C@H](C)Cl)N(C)C1 [Clindamycin, methyl 7-chloro-6,7,8-trideoxy-6-[[[(2S,4R)-1-methyl-4-propyl-2-pyrrolidinyl]carbonyl]amino]-1-thio-L-threo-α-D-galacto-octopyranoside]",MIC,S. viridans,0.005 to 0.2 µg/mL
same,MIC,S. pneumoniae,0.002 to 0.1 µg/mL
same,MIC,S. epidermidis,0.1 to 0.2 µg/mL
same,MIC,S. aureus,0.04 to 1.6 µg/mL
COc1ccc(C[C@H](N)C(=O)N[C@H]2[C@@H](O)[C@H](n3cnc4c(N(C)C)ncnc43)O[C@@H]2CO)cc1 [puromycin],EC50,"SARS-CoV-2 [1]; Severe acute respiratory syndrome coronavirus 2, HeLa-ACE2, read-out: EC50 (total cell numbers per well, compound toxicity in the context of infection)",0.547 ± 0.027 µM
"CC(C)(C)c1nc(-c2cccc(NS(=O)(=O)c3c(F)cccc3F)c2F)c(-c2ccnc(N)n2)s1 [Dabrafenib, N-[3-[5-(2-amino-4-pyrimidinyl)-2-(1,1-dimethylethyl)-4-thiazolyl]-2-fluorophenyl]-2,6-difluorobenzenesulfonamide]",EC200 (caspase-3/7 activation),[2],71 nM
same,EC200 (caspase-3/7 activation),[3],"> 10,000 nM"
same,GI50,cancer cell lines; 16 cancer cell lines expressing mutant B-RAFV600E,< 0.2 µM
same,GI50,cancer cell lines; 19 cell lines expressing wild-type Ras and RAF,< 7 µM
same,GI50,cancer cell lines; five cell lines expressing other B-RAF mutants,< 0.03 µM
same,GI50,"cancer cell lines; four B-RAFV600E lines, 133 wild-type Ras and Raf lines, 18 mutant Ras lines not inhibited",> 10 µM
Cc1cccc(/C=N/Nc2cc(N3CCOCC3)nc(OCCc3ccccn3)n2)c1 [apilimod],Emax,"SARS-CoV-2 [1]; Severe acute respiratory syndrome coronavirus 2, HeLa-ACE2, read-out: maximal efficacy (uninfected cells at the highest effective concentrations)",85 to 90%
same,increase in EC50 from MOI=1 to MOI=26,SARS-CoV-2 [4],3.7 fold
Cc1c2c(nn1C)CSCc1cc(n(C)n1)CSc1cc(c3ccccc3c1)OCCCc1c(C(=O)O)n(C)c3c-2c(Cl)ccc13 [AZD-5991],EC50,SARS-CoV-2 [1]; [10],8.81 µM
same,"SI (selectivity index, CC50/EC50)",SARS-CoV-2 [4],0.06
same,activity in the HeLa-ACE2 cell-based SARS-CoV-2 assay (in words),SARS-CoV-2 [4],demonstrated activity
same,CC50 at 24 h,[5],0.527 µM
"C[C@@H](O)CCCCn1c(=O)c2c(ncn2C)n(C)c1=O [(R)-LSF, 3,7-dihydro-1-[(5R)-5-hydroxyhexyl]-3,7-dimethyl-1H-purine-2,6-dione]",IC50,[6],0.6 µM
"COc1ccc2c(c1OC)C(=O)O[C@@H]2[C@H]1c2c(cc3c(c2OC)OCO3)CCN1C [Noscapine, (3S)-6,7-dimethoxy-3-[(5R)-5,6,7,8-tetrahydro-4-methoxy-6-methyl-1,3-dioxolo[4,5-g]isoquinolin-5-yl]-1(3H)-isobenzofuranone, monohydrochloride]",IC50,Renal 1983 cell line,39.1 µM
same,IC50,MCF-7 cell line,42.3 µM
same,IC50,thymocytes,10 µM
same,IC50,HeLa cells,25 µM
O=C(c1ccc(OCCN2CCCCC2)cc1)c1c(-c2ccc(O)cc2)sc2cc(O)ccc12 [raloxifene],EC50,SARS-CoV-2 [7],4.13 µM
CCC(CC)COC(=O)[C@H](C)N[P@](=O)(OC[C@H]1O[C@@](C#N)(c2ccc3c(N)ncnn23)[C@H](O)[C@@H]1O)Oc1ccccc1 [Remdesivir],EC50,SARS-CoV-2 [1]; [10],0.13 µM
same,half-life (t 1/2),[8],1 h
same,increase in EC50 from MOI=1 to MOI=26,SARS-CoV-2 [4],2.7 fold
"COc1ccc2c3c1O[C@H]1C[C@@H](O)C=C[C@@]31CCN(C)C2 [Galantamine, (4aS,6R,8aS)-4a,5,9,10,11,12-hexahydro-3-methoxy-11-methyl-6H-benzofuro[3a,3,2-ef][2]benzazepin-6-ol]",3CL Protease Activity (Fluorescence count) Repeat1,[9]; Galantamine 0.009 μM,759
same,3CL Protease Activity (Fluorescence count) Repeat2,[9]; Galantamine 0.009 μM,768
same,3CL Protease Activity (Fluorescence count) Repeat1,[9]; Galantamine 0.018 μM,746
same,3CL Protease Activity (Fluorescence count) Repeat2,[9]; Galantamine 0.018 μM,752
same,3CL Protease Activity (Fluorescence count) Repeat1,[9]; Galantamine 0.070 μM,785
same,3CL Protease Activity (Fluorescence count) Repeat2,[9]; Galantamine 0.070 μM,783
same,3CL Protease Activity (Fluorescence count) Repeat1,[9]; Galantamine 0.14 μM,737
same,3CL Protease Activity (Fluorescence count) Repeat2,[9]; Galantamine 0.14 μM,760
same,3CL Protease Activity (Fluorescence count) Repeat1,[9]; Galantamine 0.28 μM,761
same,3CL Protease Activity (Fluorescence count) Repeat2,[9]; Galantamine 0.28 μM,797
same,3CL Protease Activity (Fluorescence count) Repeat1,[9]; Galantamine 4.5 μM,593
same,3CL Protease Activity (Fluorescence count) Repeat2,[9]; Galantamine 4.5 μM,543
same,activity at 0.009 µM,[9]; read-out: % Activity Repeat1,98%
same,activity at 0.018 µM,[9]; read-out: % Activity Repeat1,96%
same,activity at 0.07 µM,[9]; read-out: % Activity Repeat1,102%
same,activity at 0.14 µM,[9]; read-out: % Activity Repeat1,95%
same,activity at 0.28 µM,[9]; read-out: % Activity Repeat1,98%
same,activity at 4.5 µM,[9]; read-out: % Activity Repeat1,74%
same,activity at 0.009 µM,[9]; read-out: % Activity Repeat2,99%
same,activity at 0.018 µM,[9]; read-out: % Activity Repeat2,97%
same,activity at 0.07 µM,[9]; read-out: % Activity Repeat2,102%
same,activity at 0.14 µM,[9]; read-out: % Activity Repeat2,98%
same,activity at 0.28 µM,[9]; read-out: % Activity Repeat2,104%
same,activity at 4.5 µM,[9]; read-out: % Activity Repeat2,66%
same,effect on 3CL Protease activity (in words),[9]; test range 0.009-4.5 μM,inhibited 3CL Protease activity
"Nc1ncnc2c1nc(Cl)n2[C@@H]1O[C@@H]2COP(=O)(O)O[C@H]2[C@H]1O [Tocladesine, 8-chloroadenosine 3′,5′-monophosphate]",EC50,SARS-CoV-2 [1]; [10],> 9.59 µM
same,"SI (selectivity index, CC50/EC50)",SARS-CoV-2 [4],> 4.15
same,activity in the HeLa-ACE2 cell-based SARS-CoV-2 assay (in words),SARS-CoV-2 [4],active against COVID-19
same,activity in the HeLa-ACE2 cell-based SARS-CoV-2 assay (in words),SARS-CoV-2 [4]; listed as tocladesine,demonstrated activity
same,CC50 at 24 h,[5],> 39.8 µM
